Data from ChEMBL document CHEMBL6078652, “Discovery of Sporachelins by Genome Mining of a Micromonospora Strain” (J Nat Prod, 2024).
Activity calls are given as the source filed them. No cut-off for these calls is given here.

Tests used:
LX-2 [1] = assay: Antifibrotic activity against TGFbeta-1 induced human LX-2 cells assessed as inhibition of COL1A1 mRNA expression at 1 uM incubated for 24 hrs by qRT-PCR analysis relative to control; assay type: functional; parameters: scale not given: the % may be the effect or the level left
LX-2 [2] = assay: Antifibrotic activity against TGFbeta-1 induced human LX-2 cells assessed as inhibition of COL1A1 mRNA expression at 5 uM incubated for 24 hrs by qRT-PCR analysis relative to control; assay type: functional; parameters: scale not given: the % may be the effect or the level left
LX-2 [3] = assay: Antifibrotic activity against TGFbeta-1 induced human LX-2 cells assessed as inhibition of TGFB1 mRNA expression at 1 uM incubated for 24 hrs by qRT-PCR analysis relative to control; assay type: functional; parameters: scale not given: the % may be the effect or the level left
LX-2 [4] = assay: Antifibrotic activity against TGFbeta-1 induced human LX-2 cells assessed as inhibition of TGFB1 mRNA expression at 5 uM incubated for 24 hrs by qRT-PCR analysis relative to control; assay type: functional; parameters: scale not given: the % may be the effect or the level left
LX-2 [5] = assay: Antifibrotic activity against TGFbeta-1 induced human LX-2 cells assessed as inhibition of ACTA2 mRNA expression at 1 uM incubated for 24 hrs by qRT-PCR analysis relative to control; assay type: functional; parameters: scale not given: the % may be the effect or the level left
LX-2 [6] = assay: Antifibrotic activity against TGFbeta-1 induced human LX-2 cells assessed as inhibition of ACTA2 mRNA expression at 5 uM incubated for 24 hrs by qRT-PCR analysis relative to control; assay type: functional; parameters: scale not given: the % may be the effect or the level left
LX-2 [7] = assay: Cytotoxicity against human LX-2 cells assessed as reduction in cell viability at 200 uM incubated for 24 hrs by CCK-8 assay; assay type: toxicity, cell-based; conditions: lx-2, 24 h
NIH3T3 [8] = assay: Antifibrotic activity against TGFbeta-1 induced mouse NIH3T3 cells assessed as decrease in COL1A1 mRNA expression at 1 uM incubated for 24 hrs by qRT-PCR analysis relative to control; assay type: functional; parameters: scale not given: the % may be the effect or the level left
NIH3T3 [9] = assay: Antifibrotic activity against TGFbeta-1 induced mouse NIH3T3 cells assessed as decrease in COL1A1 mRNA expression at 5 uM incubated for 24 hrs by qRT-PCR analysis relative to control; assay type: functional; parameters: scale not given: the % may be the effect or the level left
NIH3T3 [10] = assay: Antifibrotic activity against TGFbeta-1 induced mouse NIH3T3 cells assessed as decrease in Acta2 mRNA expression at 1 uM incubated for 24 hrs by qRT-PCR analysis relative to control; assay type: functional; parameters: scale not given: the % may be the effect or the level left
NIH3T3 [11] = assay: Antifibrotic activity against TGFbeta-1 induced mouse NIH3T3 cells assessed as decrease in Acta2 mRNA expression at 5 uM incubated for 24 hrs by qRT-PCR analysis relative to control; assay type: functional; parameters: scale not given: the % may be the effect or the level left
[12] = biological target: T1, Polyunsaturated fatty acid 5-lipoxygenase (Homo sapiens) (UniProt P09917); assay: Inhibition of human 5-LO at 2 uM incubated for 15 mins in presence of ATP by measuring fluorescence intensity relative to control
T1 sequence (whole entry): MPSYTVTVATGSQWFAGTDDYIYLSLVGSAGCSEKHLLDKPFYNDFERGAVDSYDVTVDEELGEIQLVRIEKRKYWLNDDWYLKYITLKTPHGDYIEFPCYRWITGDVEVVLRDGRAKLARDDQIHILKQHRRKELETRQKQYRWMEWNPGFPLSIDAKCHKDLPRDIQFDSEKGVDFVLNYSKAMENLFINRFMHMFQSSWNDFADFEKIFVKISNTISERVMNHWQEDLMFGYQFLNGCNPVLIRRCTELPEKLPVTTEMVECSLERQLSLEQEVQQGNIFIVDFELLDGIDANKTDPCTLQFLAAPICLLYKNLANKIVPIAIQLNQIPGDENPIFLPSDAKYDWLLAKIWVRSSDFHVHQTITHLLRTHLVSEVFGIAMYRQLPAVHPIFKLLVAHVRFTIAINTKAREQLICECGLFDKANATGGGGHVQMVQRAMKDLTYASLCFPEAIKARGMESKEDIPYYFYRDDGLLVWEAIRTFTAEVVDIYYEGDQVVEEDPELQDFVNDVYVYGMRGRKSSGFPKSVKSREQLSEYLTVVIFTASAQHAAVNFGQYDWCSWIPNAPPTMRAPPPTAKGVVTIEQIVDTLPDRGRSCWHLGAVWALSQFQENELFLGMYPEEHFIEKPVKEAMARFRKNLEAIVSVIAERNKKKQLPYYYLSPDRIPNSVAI

Escherichia coli [13] = assay: Antibacterial activity against Escherichia coli ATCC 25922 assessed as bacterial growth inhibition incubated for 16 hrs in presence of Muller-Hinton medium by broth microdilution method; assay type: functional, organism-based
Escherichia coli [14] = assay: Antibacterial activity against Escherichia coli ATCC 35218 assessed as bacterial growth inhibition incubated for 16 hrs in presence of Muller-Hinton medium by broth microdilution method; assay type: functional, organism-based
Pseudomonas aeruginosa [15] = assay: Antibacterial activity against Pseudomonas aeruginosa ATCC 27853 assessed as bacterial growth inhibition incubated for 16 hrs in presence of Muller-Hinton medium by broth microdilution method; assay type: functional, organism-based
Pseudomonas aeruginosa [16] = assay: Antibacterial activity against Pseudomonas aeruginosa 2774 assessed as bacterial growth inhibition incubated for 16 hrs in presence of Muller-Hinton medium by broth microdilution method; assay type: functional, organism-based
Klebsiella pneumoniae [17] = assay: Antibacterial activity against Klebsiella pneumoniae ATCC 10031 assessed as bacterial growth inhibition incubated for 16 hrs in presence of Muller-Hinton medium by broth microdilution method; assay type: functional, organism-based
Klebsiella pneumoniae [18] = assay: Antibacterial activity against Klebsiella pneumoniae ATCC 700603 assessed as bacterial growth inhibition incubated for 16 hrs in presence of Muller-Hinton medium by broth microdilution method; assay type: functional, organism-based
Acinetobacter baumannii [19] = assay: Antibacterial activity against Acinetobacter baumannii ATCC 19606 assessed as bacterial growth inhibition incubated for 16 hrs in presence of Muller-Hinton medium by broth microdilution method; assay type: functional, organism-based
Acinetobacter baumannii [20] = assay: Antibacterial activity against Acinetobacter baumannii 2799 assessed as bacterial growth inhibition incubated for 16 hrs in presence of Muller-Hinton medium by broth microdilution method; assay type: functional, organism-based
Enterococcus faecium = assay: Antibacterial activity against Enterococcus faecium 310682 (VRE) assessed as bacterial growth inhibition incubated for 16 hrs in presence of brain heart infusion medium by broth microdilution method; assay type: functional, organism-based
Enterococcus faecalis = assay: Antibacterial activity against Enterococcus faecalis ATCC 33186 assessed as bacterial growth inhibition incubated for 16 hrs in presence of brain heart infusion medium by broth microdilution method; assay type: functional, organism-based
Staphylococcus aureus [21] = assay: Antibacterial activity against Staphylococcus aureus ATCC 33591 assessed as bacterial growth inhibition incubated for 16 hrs in presence of Muller-Hinton medium by broth microdilution method; assay type: functional, organism-based
Staphylococcus aureus [22] = assay: Antibacterial activity against Staphylococcus aureus ATCC 29213 assessed as bacterial growth inhibition incubated for 16 hrs in presence of Muller-Hinton medium by broth microdilution method; assay type: functional, organism-based
Bacillus subtilis = assay: Antibacterial activity against Bacillus subtilis CPCC 100029 assessed as bacterial growth inhibition incubated for 16 hrs in presence of Muller-Hinton medium by broth microdilution method; assay type: functional, organism-based
LX-2 [23] = assay: Antifibrotic activity against TGFbeta-1 induced human LX-2 cells assessed as inhibition of COL1A1 mRNA expression incubated for 24 hrs by qRT-PCR analysis; assay type: functional, cell-based; conditions: dose 1-5 µM
LX-2 [24] = assay: Antifibrotic activity against TGFbeta-1 induced human LX-2 cells assessed as inhibition of TGFB1 mRNA expression incubated for 24 hrs by qRT-PCR analysis; assay type: functional, cell-based; conditions: dose 1-5 µM
LX-2 [25] = assay: Antifibrotic activity against TGFbeta-1 induced human LX-2 cells assessed as inhibition of ACTA2 mRNA expression incubated for 24 hrs by qRT-PCR analysis; assay type: functional, cell-based; conditions: dose 1-5 µM

| Structure (SMILES) | Activity (LX-2 [1]) [%] | Activity (LX-2 [2]) [%] | Activity (LX-2 [3]) [%] | Activity (LX-2 [4]) [%] | Activity (LX-2 [5]) [%] | Activity (LX-2 [6]) [%] | Activity (LX-2 [7]) | Activity (NIH3T3 [8]) [%] | Activity (NIH3T3 [9]) [%] | Activity (NIH3T3 [10]) [%] | Activity (NIH3T3 [11]) [%] | inhibition [12] [%] | Activity (Escherichia coli [13]) | Activity (Escherichia coli [14]) | Activity (Pseudomonas aeruginosa [15]) | Activity (Pseudomonas aeruginosa [16]) | Activity (Klebsiella pneumoniae [17]) | Activity (Klebsiella pneumoniae [18]) | Activity (Acinetobacter baumannii [19]) | Activity (Acinetobacter baumannii [20]) | further results |
| --- | --- | --- | --- | --- | --- | --- | --- | --- | --- | --- | --- | --- | --- | --- | --- | --- | --- | --- | --- | --- | --- |
| O=C(Cc1ccccc1)OC[C@H](CCCCNC(=O)c1cccc(O)c1O)NC(=O)c1cccnc1 | -3.5 | 29 | 15 | 40 | 3.1 | 68 | Non-toxic | 7.6 | 31 | 20 | 55 | 66 | inactive | inactive | inactive | inactive | inactive | inactive | inactive | inactive | Activity (Enterococcus faecium): inactive; Activity (Enterococcus faecalis): inactive; Activity (Staphylococcus aureus [21]): inactive; Activity (Staphylococcus aureus [22]): inactive; Activity (Bacillus subtilis): inactive |
| O=C(Cc1ccc(O)cc1)OC[C@H](CCCCNC(=O)c1cccc(O)c1O)NC(=O)c1cccc(O)c1O | 29 | 81 | 50 | 81 | 61 | 136 | Non-toxic | 46 | 68 | 80 | 119 | 77 | inactive | inactive | inactive | inactive | inactive | inactive | inactive | inactive | Activity (LX-2 [23]): Dose-dependent-effect; Activity (LX-2 [24]): Dose-dependent-effect; Activity (LX-2 [25]): Dose-dependent-effect; Activity (Enterococcus faecium): inactive; Activity (Enterococcus faecalis): inactive; Activity (Staphylococcus aureus [21]): inactive; Activity (Staphylococcus aureus [22]): inactive; Activity (Bacillus subtilis): inactive |
| CC(C)C(=O)OC[C@H](CCCCNC(=O)c1cccc(O)c1O)NC(=O)c1cccc(O)c1O | 49 | 93 | 65 | 72 | 92 | 138 | Non-toxic | 44 | 79 | 75 | 122 | 80 | inactive | inactive | inactive | inactive | inactive | inactive | inactive | inactive | Activity (LX-2 [23]): Dose-dependent-effect; Activity (LX-2 [24]): Dose-dependent-effect; Activity (LX-2 [25]): Dose-dependent-effect; Activity (Enterococcus faecium): inactive; Activity (Enterococcus faecalis): inactive; Activity (Staphylococcus aureus [21]): inactive; Activity (Staphylococcus aureus [22]): inactive; Activity (Bacillus subtilis): inactive |
| CCC(=O)OC[C@H](CCCCNC(=O)c1cccc(O)c1O)NC(=O)c1cccc(O)c1O | 50 | 92 | 57 | 73 | 105 | 139 | Non-toxic | 35 | 81 | 61 | 117 | 75 | inactive | inactive | inactive | inactive | inactive | inactive | inactive | inactive | Activity (LX-2 [23]): Dose-dependent-effect; Activity (LX-2 [24]): Dose-dependent-effect; Activity (LX-2 [25]): Dose-dependent-effect; Activity (Enterococcus faecium): inactive; Activity (Enterococcus faecalis): inactive; Activity (Staphylococcus aureus [21]): inactive; Activity (Staphylococcus aureus [22]): inactive; Activity (Bacillus subtilis): inactive |
